Experimental data: patent US4290954A, “Tetrahydroxanthone derivatives” (Kowa Company Limited, priority 1978, dated 1981)

What was measured:
[1] = system: peritoneal cells; test: Inhibitory effects on histamine release (sensitized rat peritoneal cells, OA challenge); format: cell-based, male Sprague-Dawley (SD) rat; conditions: 10 min at 37° C., OA added simultaneously; for minimal effective concentration: 10 min, read-out: Inhibition of Histamine release (lowest effective concentration to inhibit the release of histamine)
Procedure: An anti-ovalbumin (OA) mouse serum (IgE like antibody, PCA titer; 1:400-1:800) was diluted 20 times with physiological saline. A male Sprague-Dawley (SD) rat weighing 300-400 g was passively sensitized by intraperitoneal administration of 5 ml of the diluted serum. 48 Hours later, the rat was decapitated and exsanguinated. 10 ml of Tyrode's solution containing 5 units/ml of heparin was then injected into the peritoneal cavity of the rat. After mixing the solution by gentle massage for 60 seconds, the fluid in the peritoneal cavity was collected and then centrifuged for 5 minutes at 120×g to harvest peritoneal cells. The peritoneal cells were suspended in Tyrode's solution so as to adjust the concentration of 10^6 cells/ml. After preincubating 1.6 ml of the cell suspension for 4 minutes at 37° C., 0.2 ml of each test compound solution and 0.2 ml of OA solution (100 μg/ml) were added simultaneously and thereafter incubated for 10 minutes at 37° C. The reaction was terminated by ice-cooling the mixture, and the thus incubated solution was centrifuged for 5 minutes at 670×g to divide the same into a cell pellet and a supernatant liquid phase. The histamine content in each of the phases was determined by the fluorometric method of Grant et al*. Each tested pharmaceutical compound was used by dissolving it in Tyrode's solution prior to its use.
*Grant, J. A., Settle, L., Whorton, E. B. and Dupree, E., Complement-mediated releast of histamine from human basophils: II. Biochemical characterization of the reaction, J. Immunol., 117, 450 (1976)
The results of tests (1) and (2) are shown in Table 1 in which each figure in the "Inhibition of Histamine Release" column denotes the lowest effective concentration to inhibit the release of histamine.

[2] = Acute toxic test (LD50, up-down method); conditions: in vivo; oral, male SD rat, 72 hours after administration
Procedure: Each of the compounds shown in Table 2 was suspended in a 0.5% carboxymethylcellulose solution and administered orally to a male SD rat (5 weeks old). Upon the lapse of 72 hours after the administration, the LD50 value was determined by the up-down method.

[3] = system: passive cutaneous anaphylaxis (PCA); test: Inhibitory effects on passive cutaneous anaphylaxis (PCA); format: in vivo, male SD rat; conditions: 100 mg/kg orally one hour prior to the antigen challenge, rat; for inhibition in vivo at 100 mg/kg: po, 1 h, read-out: P C A (p.o), degree of inhibition
Procedure: A male SD rat weighing about 300 g was used, whose hair on the back had been shaved with an electric clipper. The back skin was passively sensitized by intradermal injection of 0.1 ml of anti-OA mouse serum (IgE like antibody) which had been diluted to three concentration levels. 4 Hours later, the rat was challenged by intravenous injection of an antigen solution of 2 ml/kg containing OA (1 mg/ml) and Evans blue (0.5 mg/ml). 30 Minutes after the antigen challenge, the rat was decapitated and exsanguinated. Then, the skin was reflected, and the area of blue spots was measured in milimeters by multiplying the longer diameter by the shorter diameter. […] The degree of inhibition of the test compound is expressed by the following notations.
±: 0-25% inhibition with no significant difference from the control
±: 25-50% inhibition with a significant difference from the control
++: 50-75% inhibition with a significant difference from the control
+++: 75-100% inhibition with a significant difference from the control
Each test pharmaceutical compound was suspended in a 0.2% carboxymethylcellulose solution and administered orally at a rate of 100 mg/kg one hour prior to the antigen challenge. Disodium cromoglycate which was known as an anti-allergic drug was employed as a control or reference substance.

SMILES	minimal effective concentration [1]	inhibition in vivo at 100 mg/kg [3]	other results
Cc1ccc2c(=O)c3c(oc2c1)CCC(C(=O)Nc1ccccc1C(=O)O)C3 (stereo not drawn) [drawing 19]	3 µg/mL	–	–
O=C(O)c1ccc2oc3c(c(=O)c2c1)CCCC3 [Example 2-COOH, 5,6,7,8-Tetrahydro-9-oxo-xanthene-2-carboxylic acid]	10 µg/mL	–	LD50 at 72 h [2]: > 4000 mg/kg
CC1CCc2oc3ccc(C(=O)O)cc3c(=O)c2C1 (stereo not drawn) [2-COOH 7-CH3, 7-methyl-5,6,7,8-tetrahydro-9-oxo-xanthene-2-carboxylic acid]	0.3 µg/mL	–	–
Cc1ccc2c(=O)c3c(oc2c1)CCC(c1nnn[nH]1)C3 (stereo not drawn) [3-CH3 7-Tz, 6-Methyl-1,2,3,4-tetrahydro-2-(5'-tetrazolyl)-9-oxo-xanthene]	1 µg/mL	–	–
CC1CCc2oc3cc(-c4nnn[nH]4)ccc3c(=O)c2C1 (stereo not drawn) [3-Tz 7-CH3, 2-methyl-1,2,3,4-tetrahydro-6-(5'-tetrazolyl)-9-xanthone]	–	50 to 75%	–
CC(C)(C)C1CCc2oc3ccc(-c4nnn[nH]4)cc3c(=O)c2C1 (stereo not drawn) [2-Tz 7-tert.Bu, 2-(t-butyl)-1,2,3,4-tetrahydro-7-(5'-tetrazolyl)-9-xanthone]	0.1 µg/mL	–	–
CC1CCc2oc3ccc(C(=O)Nc4ccccc4C(=O)O)cc3c(=O)c2C1 (stereo not drawn)	0.3 µg/mL	0 to 25%	–
O=C(O)c1ccc2c(=O)c3c(oc2c1)CCCC3 [Example 3-COOH, 5,6,7,8-tetrahydro-9-oxo-xanthene-3-carboxylic acid]	10 µg/mL	–	–
O=C(Nc1nnn[nH]1)c1ccc2oc3c(c(=O)c2c1)CCCC3 [Example 2-CONHTz, 5,6,7,8-tetrahydro-N-(5'-tetrazolyl)-9-oxo-xanthene-2-carboxylic acid amide]	0.1 µg/mL	–	–
O=C(Nc1ccccc1C(=O)O)c1ccc2oc3c(c(=O)c2c1)CCCC3 [drawing 20]	1 µg/mL	–	P C A (p.o), degree of inhibition [3]: + +
O=c1c2c(oc3ccc(-c4nnn[nH]4)cc13)CCCC2 [Example 2-Tz, 1,2,3,4-Tetrahydro-7-(5'-tetrazolyl)-9-xanthone]	0.01 µg/mL	–	LD50 at 72 h [2]: > 4000 mg/kg
CC1CCc2oc3ccc(-c4nn[nH]n4)cc3c(=O)c2C1 (stereo not drawn) [2-Tz 7-CH3, 2-methyl-1,2,3,4-tetrahydro-7-(5'tetrazolyl)-9-xanthone]	–	–	P C A (p.o), degree of inhibition [3]: ± (0-25% inhibition with no significant difference from the control); Inhibition of Histamine release (lowest effective concentration to inhibit the release of histamine) [1]: 0.01 µg/mL
Cc1ccc2c(=O)c3c(oc2c1)CCC(C(=O)Nc1ccccc1C(=O)O)C3 (stereo not drawn) [drawing 26]	–	–	LD50 at 72 h [2]: > 4000 mg/kg
Cc1ccc2c(=O)c3c(oc2c1)CCC(C(=O)Nc1nnn[nH]1)C3 (stereo not drawn) [3-CH3 7-CONHTz]	3 µg/mL	0 to 25%	–
Cc1cc(-c2nnn[nH]2)cc2c(=O)c3c(oc12)CCCC3 [2-Tz 4-CH3, 4-methyl-5,6,7,8-tetrahydro-2-(5'-tetrazolyl)-9-xanthone]	0.1 µg/mL	–	–
O=c1c2c(oc3cc(-c4nnn[nH]4)ccc13)CCCC2 [Example 3-Tz, 5,6,7,8-tetrahydro-3-(5'-tetrazolyl)-9-xanthone]	0.3 µg/mL	50 to 75%	–
O=C(Nc1ccccc1C(=O)O)c1ccc2oc3c(c(=O)c2c1)CCCC3 [drawing 25]	–	–	LD50 at 72 h [2]: > 4000 mg/kg
CC(C)(C)C1CCc2oc3ccc(C(=O)O)cc3c(=O)c2C1 (stereo not drawn) [2-COOH 7-tert.Bu, 7-(t-butyl)-5,6,7,8-tetrahydro-9-oxo-xanthene-2-carboxylic acid]	0.3 µg/mL	75 to 100%	–
Cc1cc(C(=O)O)cc2c(=O)c3c(oc12)CCCC3 [2-COOH 4-CH3, 4-methyl-5,6,7,8-tetrahydro-9-oxo-xanthene-2-carboxylic acid]	–	50 to 75%	–
O=C(O)C1CCc2oc3ccc(-c4nnn[nH]4)cc3c(=O)c2C1 (stereo not drawn) [2-Tz 7-COOH]	0.01 µg/mL	–	–
CC(C)(C)C1CCc2oc3ccc(C(=O)Nc4nnn[nH]4)cc3c(=O)c2C1 (stereo not drawn) [2-CONHTz 7-tert.Bu, 7-(t-butyl)-5,6,7,8-tetrahydro-N-(5'-tetrazolyl)-9-oxo-xanthene-2-carboxylic acid amide]	1 µg/mL	0 to 25%	–
O=C(OC1CCc2oc3ccc(-c4nnn[nH]4)cc3c(=O)c2C1)c1ccccc1 (stereo not drawn)	10 µg/mL	–	–
O=C(O)c1cc(=O)c2c(OCC(O)COc3cccc4oc(C(=O)O)cc(=O)c34)cccc2o1 [Disodium cromoglycate, reference compound]	3 µg/mL	0 to 25%	–
